# Results reported in article PMC4440792 (ChemMedChem, 2014).
# Ends that are not written are not given here.
# Test system: human red blood cells
# Test: Hemolytic assay
# Type: cell-based
# Conditions: human RBCs in PBS, 37°C, 1 h; representative of 4 independent determinations
row,Compound,HD10 (peptide concentration that results in lysis of 10% red blood cells) [μm]
1,GGHGLLKRIKTLL-NH2 [GGH–anoplin],16
2,RAGLQFPVGRVHRLLRK-NH2 [sh-Buforin],64
3,GLLKRIKTLL-NH2 [Anoplin],>64
4,CC(C)C[C@H](NC(=O)[C@H](CCCCN)NC(=O)[C@H](C)NC(=O)[C@H](CC(C)C)NC(=O)[C@H](CCCCN)NC(=O)[C@H](CCCCN)NC(=O)[C@H](C)NC(=O)[C@H](CC(C)C)NC(=O)[C@H](CCCCN)NC(=O)[C@H](C)NC(=O)[C@H](CC(C)C)NC(=O)[C@@H](N)CCCCN)C(=O)N[C@@H](C)C(=O)N[C@@H](CCCCN)C(N)=O [PAP],64
